Like-named read-outs stand apart in the source and are kept apart here.
What was measured:
[1] = target: recombinant P. falciparum PMX (Plasmodium falciparum, UniProt Q8IAS0); assay: Recombinant P. falciparum PMX inhibition assay (fluorogenic substrate Rh2N); format: biochemical
Procedure: The fluorescence of this peptide is quenched by the spatial proximity of the DABCYL/EDANS groups in the uncleaved peptide and is increased upon cleavage at the internal F–I bond. […] Control wells contained no inhibitor, and the plate was blanked against the substrate only in DB. […] All experiments were performed in duplicate.

PMIV = PMIV (Plasmodium falciparum, UniProt Q8IM16); assay: FRET-based PMIV inhibition assay; format: biochemical, P. falciparum
Procedure: (§1) A fluorescence resonance energy transfer (FRET)-based assay was performed to assess the ability of the compounds to inhibit PMIV, CatD, and BACE1. Serial dilutions of test compounds were dispensed in a white 96-well plate. […] The mixture was incubated for 20 min at 37 °C. […] IC50 values were calculated with GraphPad Prism 8.0 using the nonlinear regression, variable slope (four parameters). Compounds were tested in triplicate.

cathepsin D (CatD) = cathepsin D (CatD) (Homo sapiens, UniProt P07339); assay: FRET-based CatD inhibition assay (selectivity counter screen); format: biochemical
Procedure: as §1

BACE1 = BACE1 (Homo sapiens, UniProt P56817); assay: FRET-based BACE1 inhibition assay (selectivity counter screen); format: biochemical
Procedure: as §1

[2] = Liver microsomal metabolic stability; format: in vitro ADME, mouse
Procedure: Microsomal stability assays are performed as described elsewhere.[41] Test compounds and pooled mouse liver microsomes are incubated in potassium phosphate buffer in the presence of the cofactor NADPH at 37 °C. Reaction mixtures (700 μL) contain a final concentration of 5 μM test compound, 0.05% DMSO, 0.5 mg/mL microsomes, and ∼0.7–0.9 mM NADPH in 100 mM potassium phosphate buffer at pH 7.4. Reactions are terminated by the addition of 100 μL of the reaction mixture to 900 μL of acetonitrile after 0, 5, 15, 30, 45, and 60 min of incubation. Samples were centrifuged, and the resultant supernatant was analyzed by ultra-performance liquid chromatography–tandem mass spectrometry (UPLC-MS/MS). The amount of remaining compound is calculated and compared to the initial amount of test compound (zero time point). Verapamil is used as a positive control, and samples prepared without cofactor NADPH are used as a negative control (0 and 60 min). The in vitro metabolic stability parameters (half-life value (t1/2) and intrinsic clearance value (Clint)) are calculated from the slope of the Ln of concentration remaining vs the time curve.

[3] = Plasma protein binding (rapid equilibrium dialysis); format: in vitro ADME; details: pH 7.4, mouse plasma, 2 h at 37 °C
Procedure: Plasma protein binding was performed with rapid equilibrium dialysis (RED) device inserts containing a dialysis membrane with a molecular weight cut-off of 8000 Daltons. Inserts were placed in the single-use RED plate without prior preparation.
The test compound at a concentration of 5 μM was added to mouse plasma and dialyzed against phosphate-buffered saline (PBS, pH 7.4) for 2 h at 37 °C. Propranolol hydrochloride was used as a positive control (high PPB), and fluconazole was used as negative control (low PPB). After dialysis, the drug concentration in the buffer and plasma compartments was quantified by liquid chromatography and tandem mass spectrometry (LC-MS/MS) analysis.

[4] = Drug blood concentrations in PfalcHuMice during efficacy testing; format: in vivo; details: for total Cmin: PfalcHuMouse, 40 mg/kg p.o.
Procedure: The concentrations of drugs were measured in samples of peripheral blood (25 μL) taken at different times after the first dosing, mixed with 25 μL of Milli-Q H2O, and immediately frozen on a thermal block at −80 °C. The frozen samples were stored at −80 °C until analysis. Blood from control humanized mice was used for the preparation of standard curves, calibration, and quality control purposes. The drugs were extracted from 10 μL of lysates obtained by protein precipitation of blood samples using standard liquid–liquid extraction methods. The samples were analyzed by LC-MS/MS for quantification in a Waters Micromass UPLC-TQD (Waters, Manchester, U.K.). Blood concentration vs time was analyzed by non-compartmental analysis (NCA) using Phoenix WinNonlin vers.9.2 (Certara) or R or Excel (Microsoft), from which exposure-related values (tmax, Cmax, and AUC0–t) were estimated.

[5] = test system: P. falciparum 3D7 parasites; assay: Microscopy of synchronized P. falciparum cultures treated from ring stage (development and egress); format: cell-based; details: 20 nM
Procedure: Asexual blood-stage forms of P. falciparum strains 3D7 and Dd2 were maintained at 37 °C in an atmosphere of 1% O2, 5% CO2, and 94% N2 in human RBCs in RPMI 1640 medium containing AlbuMAX II (Thermo Fisher Scientific) and supplemented with 2 mM L-glutamine. The synchronization of parasite cultures was as described previously.[39] Briefly, this involved isolating mature schizont forms by centrifugation over cushions of 70% (v/v) isotonic Percoll (GE Healthcare, Life Sciences) and then allowing the parasites to undergo rupture in the presence of fresh RBCs for 2 h under gentle shaking conditions (100 rpm). Residual schizonts were then removed through a second Percoll separation, followed by treatment with 5% (w/v) sorbitol to finally obtain a highly synchronized preparation of newly invaded ring-stage parasites.
Growth stage progression and parasite morphology were also monitored by microscopic examination at selected time points using Giemsa-stained thin blood films.

[6] = test system: maturation of the PMX substrate SUB1 (p54 to p47); assay: Western blot of SUB1 maturation in treated schizonts; format: cell-based, P. falciparum; details: 20 nM, 44 h
Procedure: This phenotype is characteristic of the inhibition of PMX.
(§2) Synchronous parasite cultures were cultured from ring to schizont stage (∼44 h) in the presence of DMSO alone (0.04% v/v; control) or macrocycle compounds (20 nM final concentration). Schizonts were isolated by Percoll enrichment (still in the presence of the test compound), then either immediately frozen or further incubated in the absence of the drug but in the presence of C2 (1 μM) for 1 h at 37°C in the absence of added RBCs or for 3.5 h in the presence of added RBCs. The schizonts without added RBCs were then frozen too, and all schizont samples were then thawed into CHAPS–urea extraction buffer, subjected to sodium dodecyl sulfate-polyacrylamide gel electrophoresis (SDS-PAGE), and analyzed by Western blot, probing with antibodies against SUB1 or RAP1. For schizonts cultured in the presence of added RBCs, ring formation was assessed in two ways: cultures were examined microscopically by Giemsa stain of thin films and were also fixed with glutaraldehyde and processed for quantification of ring formation by flow cytometry as described above.

[7] = test system: maturation of RAP1, substrate of PMIX; assay: Western blot of RAP1 maturation in treated schizonts; format: cell-based, P. falciparum; details: 20 nM, 44 h
Source text: Figure 4 Macrocycle PMX inhibitors have no effect on intraerythrocytic parasite maturation but prevent egress and maturation of SUB1. […] Scale bar, 20 μm. (B) Simplified schematic of proteolytic maturation of the egress effector SUB1. Conversion of the precursor form to p54 is through autocatalytic removal[32] of the prodomain region (PD), whereas conversion of p54 to p47 is mediated by PMX.[15],[16],[33] (C) Left, Western blot analysis of P. falciparum 3D7 schizonts allowed to mature in the presence of the indicated macrocycle compounds (20 nM), showing defective SUB1 maturation in parasites treated with the indicated macrocycle compounds. Right, Western blot of the same extracts probed with a monoclonal antibody (mAb) specific to the rhoptry protein RAP1, which is a substrate for cleavage by the related P. falciparum protease PMIX. The compounds had no discernible effect on the maturation of RAP1. The results shown are typical of 3 independent experiments.
as §2

Chain of recombinant P. falciparum PMX (Q8IAS0 222-573): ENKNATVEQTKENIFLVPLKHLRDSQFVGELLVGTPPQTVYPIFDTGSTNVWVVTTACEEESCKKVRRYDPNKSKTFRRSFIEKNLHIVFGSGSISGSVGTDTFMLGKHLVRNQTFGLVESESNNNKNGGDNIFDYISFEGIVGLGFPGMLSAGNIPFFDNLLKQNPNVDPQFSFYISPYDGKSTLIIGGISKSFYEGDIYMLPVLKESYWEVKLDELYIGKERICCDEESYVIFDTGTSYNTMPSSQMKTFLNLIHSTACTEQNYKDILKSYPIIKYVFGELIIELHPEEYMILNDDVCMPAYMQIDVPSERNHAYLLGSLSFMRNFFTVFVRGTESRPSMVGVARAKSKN
Chain of PMIV (Q8IM16 122-449): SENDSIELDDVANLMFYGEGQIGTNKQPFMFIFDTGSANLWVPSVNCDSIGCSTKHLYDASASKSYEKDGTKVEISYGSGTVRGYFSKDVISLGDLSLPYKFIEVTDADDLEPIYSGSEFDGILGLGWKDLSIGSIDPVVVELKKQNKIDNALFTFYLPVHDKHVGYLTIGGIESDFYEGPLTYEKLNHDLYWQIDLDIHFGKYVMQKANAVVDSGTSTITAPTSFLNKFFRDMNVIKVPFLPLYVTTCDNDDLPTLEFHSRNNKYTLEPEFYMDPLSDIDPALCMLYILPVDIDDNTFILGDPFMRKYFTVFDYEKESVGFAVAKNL
Chain of BACE1 (P56817 46-501): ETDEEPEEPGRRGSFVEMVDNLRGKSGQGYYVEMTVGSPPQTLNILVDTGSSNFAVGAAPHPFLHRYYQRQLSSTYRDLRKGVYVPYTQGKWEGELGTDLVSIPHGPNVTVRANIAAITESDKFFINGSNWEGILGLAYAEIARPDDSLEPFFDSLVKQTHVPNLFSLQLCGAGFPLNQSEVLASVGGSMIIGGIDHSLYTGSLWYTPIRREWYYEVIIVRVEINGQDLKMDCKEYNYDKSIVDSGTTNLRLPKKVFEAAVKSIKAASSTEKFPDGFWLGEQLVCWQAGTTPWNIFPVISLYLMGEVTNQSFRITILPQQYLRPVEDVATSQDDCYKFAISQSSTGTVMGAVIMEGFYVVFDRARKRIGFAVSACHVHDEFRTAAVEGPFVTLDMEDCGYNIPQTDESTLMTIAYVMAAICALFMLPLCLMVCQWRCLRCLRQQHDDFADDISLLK
Chain of cathepsin D (CatD) (P07339 65-412): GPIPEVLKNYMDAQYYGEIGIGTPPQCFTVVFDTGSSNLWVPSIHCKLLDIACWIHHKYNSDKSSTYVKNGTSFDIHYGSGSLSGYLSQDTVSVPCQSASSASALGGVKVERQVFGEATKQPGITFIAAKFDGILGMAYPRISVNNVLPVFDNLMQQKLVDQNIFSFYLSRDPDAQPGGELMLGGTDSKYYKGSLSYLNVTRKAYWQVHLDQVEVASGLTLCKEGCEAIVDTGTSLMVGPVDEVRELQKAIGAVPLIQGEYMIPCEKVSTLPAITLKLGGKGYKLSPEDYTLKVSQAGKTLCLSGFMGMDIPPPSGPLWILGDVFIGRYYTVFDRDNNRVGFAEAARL

CCCN1CCCCCc2cccc(c2)C[C@@H]([C@H](O)CNC(C)(C)c2cccc(OC)c2)NC(=O)c2cccc(c2)C1=O [7k, (S)-4-((R)-1-Hydroxy-2-((2-(3-methoxyphenyl)propan-2-yl)amino)ethyl)-12-propyl-3,12-diaza-1,6(1,3)-dibenzenacyclotridecaphane-2,13-dione]
IC50 ([1]; Table 3, read-out: PMX, nM (as listed in Table 3)): 0.4 ± 0.03 nM | improvement of PMX inhibitory potency ([1]; compared to 7a): 10 fold | IC50 ([1]; recombinant PMX, read-out: PMX, nM (IC50)): 0.4 ± 0.03 nM | IC50 (PMIV; Table 3, read-out: PMIV, nM (as listed in Table 3)): 17 ± 2 nM | improvement of PMIV inhibitory potency (PMIV; compared to 7a): 3 fold | IC50 (PMIV; read-out: PMIV, nM (IC50)): 17 ± 2 nM | IC50 (cathepsin D (CatD)): 330 ± 20 nM | IC50 (BACE1): 2030 ± 100 nM | improvement of half-life in the microsomal stability test ([2]; compared to the acyclic analogue 6a): 3 fold | half-life at 1 h, 5 μM ([2]; pooled liver microsomes, pH 7.4, mouse liver microsomes, 5 μM): 16.9 min | microsomal CLint at 1 h, 5 μM ([2]; pooled liver microsomes, pH 7.4, mouse liver microsomes, 5 μM, read-out: microsomal stability CL(int)): 81.9 µL/min/mg | fraction unbound at 2 h, 5 µM [3]: 0.0027 | total Cmin ([4]; BID): 32 ng/mL | total Cmin ([4]; TID): 85 ng/mL | total Cmin ([4]; UID): 51 ng/mL | pharmacokinetic modeling of concentrations over the period of administration ([4]; plasma concentration at 71.0, 72.5, 73.0 and 78.0 hours post-treatment): rapid absorption with no accumulation | intraerythrocytic development of ring-stage parasites to schizont stage ([5]; 44 h): Development of ring-stage parasites to the multinucleated schizont stage occurred similarly in all cultures | schizont rupture (egress) and appearance of new rings ([5]; 44 h and extended incubation): schizont rupture and appearance of new rings did not occur | maturation of SUB1 (p54 to p47) [6]: clear defect in maturation of the PMX substrate SUB1 | maturation of RAP (PMIX substrate) [7]: do not affect PMIX activity at these concentrations
